# Assay results: ChEMBL document CHEMBL3868610, “Novel bicyclo[3.1.0]hexane analogs as antagonists of metabotropic glutamate 2/3 receptors for the treatment of depression” (Bioorg Med Chem Lett, 2016)
# The source made the active and inactive calls. No cut-off for these calls is given here.
# Experiments:
# [1] = Plasma concentration in NIH Swiss Webster mouse at 1 mg/kg, ip at 30 mins; format: ADME, organism-based
# [2] = Antidepressant activity in rat EEG model assessed as accumulated wake time at 3 mg/kg, ip measured over 7 hrs relative to control; format: functional, organism-based
# [3] = target: T1, Metabotropic glutamate receptor 3 (Homo sapiens, UniProt Q14832); assay: Antagonist activity at recombinant human mGlu3 receptor expressed in hamster AV12 cells co-expressing human EAAT1 assessed as reduction of DCG-4-inhibited forskolin-stimulated cAMP formation after 20 mins by HTRF assay; format: functional, cell-based
# [4] = Drug metabolism in human microsomes at 4 uM after 30 mins; format: ADME, Microsome; details: read-out: Drug metabolism
# [5] = Half life in rat at 10 mg/kg, ip; format: ADME, organism-based; details: in vivo
# [6] = Drug metabolism in dog microsomes at 4 uM after 30 mins; format: ADME, Canis lupus familiaris, Microsome; details: read-out: Drug metabolism
# [7] = Plasma concentration in NIH Swiss Webster mouse at 0.3 mg/kg, ip at 30 mins; format: ADME, organism-based
# [8] = Half life in rat at 1 mg/kg, iv; format: ADME, organism-based; details: in vivo
# [9] = target: hERG (KCNH2) (Homo sapiens, UniProt Q12809); assay: Displacement of [3H]-Astemizole from human ERG at 100 uM by membrane binding assay; details: membranes with human ERG, probe [3H]-Astemizole
# [10] = target: Metabotropic glutamate receptor 8 (Homo sapiens, UniProt O00222); assay: Agonist activity at recombinant human mGlu8 receptor expressed in hamster AV12 cells co-expressing human EAAT1 assessed as induction of forskolin-stimulated cAMP formation after 20 mins by HTRF assay; format: functional, cell-based
# [11] = Cmax in rat at 1 mg/kg, iv; format: ADME, organism-based; design: dose 1 mg/kg, route intravenous; details: in vivo
# [12] = Unbound fraction in mouse; format: ADME, organism-based; details: in vivo
# [13] = Antidepressant activity in NIH Swiss Webster mouse assessed as immobility time at 0.3 mg/kg, ip administered 30 mins prior to test measured during last 4 mins of the 6 mins observation time by forced swim test (reference value: 142 sec); format: functional, organism-based
# [14] = target: T1, Metabotropic glutamate receptor 3; assay: Antagonist activity at recombinant human mGlu3 receptor expressed in hamster AV12 cells assessed as inhibition of DCG-4-inhibited forskolin-stimulated cAMP formation up to 25 uM after 20 mins by HTRF assay relative to control; format: functional, cell-based
# Target sequence in this assay (Q14832 23-879 limits assumed): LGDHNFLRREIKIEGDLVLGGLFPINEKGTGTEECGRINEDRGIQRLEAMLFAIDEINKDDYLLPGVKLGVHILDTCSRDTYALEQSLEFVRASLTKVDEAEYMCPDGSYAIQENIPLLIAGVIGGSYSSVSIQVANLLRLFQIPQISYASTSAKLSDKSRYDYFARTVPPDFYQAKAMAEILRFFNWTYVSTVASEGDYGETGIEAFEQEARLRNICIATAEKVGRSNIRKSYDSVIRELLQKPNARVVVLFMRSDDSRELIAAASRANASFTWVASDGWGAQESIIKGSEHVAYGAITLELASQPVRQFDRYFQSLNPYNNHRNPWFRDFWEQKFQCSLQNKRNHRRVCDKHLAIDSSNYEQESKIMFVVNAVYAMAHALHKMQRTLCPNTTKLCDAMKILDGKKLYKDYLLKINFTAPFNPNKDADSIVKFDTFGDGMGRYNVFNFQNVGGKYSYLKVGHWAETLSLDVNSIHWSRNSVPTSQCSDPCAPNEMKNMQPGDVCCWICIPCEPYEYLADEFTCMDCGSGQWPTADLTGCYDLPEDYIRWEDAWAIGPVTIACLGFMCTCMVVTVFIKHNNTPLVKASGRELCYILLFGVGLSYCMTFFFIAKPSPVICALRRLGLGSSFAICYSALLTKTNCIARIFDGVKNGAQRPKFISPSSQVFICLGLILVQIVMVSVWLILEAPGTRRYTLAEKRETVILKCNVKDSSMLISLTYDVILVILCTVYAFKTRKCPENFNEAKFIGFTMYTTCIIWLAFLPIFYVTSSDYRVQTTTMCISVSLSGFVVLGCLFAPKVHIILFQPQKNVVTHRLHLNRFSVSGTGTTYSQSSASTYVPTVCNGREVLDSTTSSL
# [15] = target: T2, Metabotropic glutamate receptor 2 (Homo sapiens, UniProt Q14416); assay: Antagonist activity at recombinant human mGlu2 receptor expressed in hamster AV12 cells co-expressing human EAAT1 assessed as reduction of DCG-4-inhibited forskolin-stimulated cAMP formation after 20 mins by HTRF assay; format: functional, cell-based
# [16] = target: T3, Metabotropic glutamate receptor 7 (Homo sapiens, UniProt Q14831); assay: Antagonist activity at recombinant human mGlu7 receptor expressed in hamster AV12 cells co-expressing human EAAT1/Galpha1s assessed as inhibition of Ca2+ flux by Fluo-3-AM dye based FLIPR assay; format: functional, cell-based
# [17] = Antidepressant activity in NIH Swiss Webster mouse assessed as immobility time at 1 mg/kg, ip administered 30 mins prior to test measured during last 4 mins of the 6 mins observation time by forced swim test (reference value: 142 sec); format: functional, organism-based
# [18] = Oral bioavailability in rat at 5 mg/kg; format: ADME, organism-based; details: in vivo
# [19] = Tmax in rat at 5 mg/kg, po; format: ADME, organism-based; details: in vivo
# [20] = Unbound fraction in human plasma at 1 uM; format: ADME, cell-free
# [21] = Drug metabolism in rat microsomes at 4 uM after 30 mins; format: ADME, Microsome; details: read-out: Drug metabolism
# [22] = Drug uptake in NIH Swiss Webster mouse brain at 3 mg/kg, ip at 30 mins; format: ADME, organism-based; details: read-out: Drug uptake
# [23] = Drug uptake in NIH Swiss Webster mouse brain at 1 mg/kg, ip at 30 mins; format: ADME, organism-based; details: read-out: Drug uptake
# [24] = Cmax in rat at 5 mg/kg, po; format: ADME, organism-based; design: dose 5 mg/kg, route oral; details: in vivo
# [25] = target: T3, Metabotropic glutamate receptor 7; assay: Agonist activity at recombinant human mGlu7 receptor expressed in hamster AV12 cells co-expressing human EAAT1/Galpha1s assessed as increase in Ca2+ flux by Fluo-3-AM dye based FLIPR assay; format: functional, cell-based
# [26] = Half life in rat at 5 mg/kg, po; format: ADME, organism-based; details: in vivo
# [27] = AUC (0 to 24 hrs) in rat at 10 mg/kg, ip; format: ADME, organism-based; design: dose 10 mg/kg, time < 24 hr, route intraperitoneal; details: in vivo
# [28] = Antidepressant activity in ip dosed rat EEG model assessed as accumulated wake time measured over 7 hrs relative to control; format: functional, organism-based
# [29] = target: T2, Metabotropic glutamate receptor 2; assay: Agonist activity at recombinant human mGlu2 receptor expressed in hamster AV12 cells co-expressing human EAAT1 assessed as increase in forskolin-stimulated cAMP formation up to 25 uM after 20 mins by HTRF assay; format: functional, cell-based
# Target sequence in this assay (Q14416 whole entry): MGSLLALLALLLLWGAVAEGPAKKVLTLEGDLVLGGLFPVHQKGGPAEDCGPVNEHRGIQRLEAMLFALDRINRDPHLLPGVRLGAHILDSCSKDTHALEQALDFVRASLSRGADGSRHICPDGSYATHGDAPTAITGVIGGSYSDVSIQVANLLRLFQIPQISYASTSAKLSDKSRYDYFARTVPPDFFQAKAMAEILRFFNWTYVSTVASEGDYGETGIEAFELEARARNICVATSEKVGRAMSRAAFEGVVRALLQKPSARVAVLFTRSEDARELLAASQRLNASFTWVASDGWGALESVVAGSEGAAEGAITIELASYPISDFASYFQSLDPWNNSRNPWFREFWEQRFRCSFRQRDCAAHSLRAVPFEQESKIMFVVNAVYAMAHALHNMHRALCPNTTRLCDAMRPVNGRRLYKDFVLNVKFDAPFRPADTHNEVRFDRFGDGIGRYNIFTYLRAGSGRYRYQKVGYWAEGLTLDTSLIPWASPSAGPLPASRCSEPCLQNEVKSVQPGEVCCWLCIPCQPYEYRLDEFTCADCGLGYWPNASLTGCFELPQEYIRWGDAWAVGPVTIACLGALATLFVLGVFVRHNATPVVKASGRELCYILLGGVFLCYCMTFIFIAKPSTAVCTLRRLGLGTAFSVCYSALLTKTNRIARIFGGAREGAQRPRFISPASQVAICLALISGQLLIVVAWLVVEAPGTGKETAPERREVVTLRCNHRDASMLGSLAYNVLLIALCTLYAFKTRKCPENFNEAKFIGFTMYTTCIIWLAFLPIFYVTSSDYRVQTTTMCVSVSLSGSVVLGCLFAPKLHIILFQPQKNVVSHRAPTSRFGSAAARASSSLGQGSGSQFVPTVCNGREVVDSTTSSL
# [30] = Unbound fraction in rat plasma at 1 uM; format: ADME, cell-free
# [31] = Antidepressant activity in ip dosed NIH Swiss Webster mouse assessed as reduction in immobility time administered 30 mins prior to evaluation measured on the last 4 mins of the 6 mins observation time by forced swim test; format: functional, organism-based
# [32] = Antidepressant activity in NIH Swiss Webster mouse assessed as immobility time at 3 mg/kg, ip administered 30 mins prior to test measured during last 4 mins of the 6 mins observation time by forced swim test (reference value: 142 sec); format: functional, organism-based
# [33] = Antidepressant activity in rat assessed as increase in wakefulness at 3 to 10 mg/kg, ip
# [34] = Permeability from apical side to basolateral side in MDCK cells at 20 uM; format: ADME, cell-based, Canis lupus familiaris; details: dog
# [35] = target: Metabotropic glutamate receptor 5 (Homo sapiens, UniProt P41594); assay: Agonist activity at recombinant human mGlu5 receptor expressed in hamster AV12 cells co-expressing human EAAT1/Galpha1s assessed as increase in Ca2+ flux by Fluo-3-AM dye based FLIPR assay; format: functional, cell-based
# [36] = Ratio of drug level in brain to plasma in mouse at 10 mg/kg, ip after 30 mins; format: ADME, organism-based; details: read-out: BPR
# [37] = Cmax in rat at 10 mg/kg, ip; format: ADME, organism-based; design: dose 10 mg/kg, route intraperitoneal; details: in vivo
# [38] = target: ABCB1 (P-gp) (Homo sapiens, UniProt P08183); assay: Inhibition of human ABCB1 expressed in MDCK cells at 5 to 25 uM relative to control; format: ADME, cell-based; details: MDCK-MDR1
# [39] = target: Metabotropic glutamate receptor 1 (Homo sapiens, UniProt Q13255); assay: Antagonist activity at recombinant human mGlu1 receptor expressed in hamster AV12 cells coexpressing human EAAT1/Galpha1s assessed as inhibition of Ca2+ flux by Fluo-3-AM dye based FLIPR assay; format: functional, cell-based
# [40] = AUC (0 to 24 hrs) in rat at 1 mg/kg, iv; format: ADME, organism-based; design: dose 1 mg/kg, time < 24 hr, route intravenous; details: in vivo
# [41] = target: Metabotropic glutamate receptor 6 (Homo sapiens, UniProt O15303); assay: Agonist activity at recombinant human mGlu6 receptor expressed in hamster AV12 cells co-expressing EAAT1 assessed as induction of forskolin-stimulated cAMP formation after 20 mins by HTRF assay; format: functional, cell-based
# [42] = Drug metabolism in monkey microsomes at 4 uM after 30 mins; format: ADME, Macaca mulatta, Microsome; details: rhesus monkey, read-out: Drug metabolism
# [43] = system: Rattus norvegicus; assay: Toxicity in rat assessed as NREM sleep at 3 to 10 mg/kg, ip; format: organism-based; details: in vivo
# T3 sequence (Q14831 whole entry): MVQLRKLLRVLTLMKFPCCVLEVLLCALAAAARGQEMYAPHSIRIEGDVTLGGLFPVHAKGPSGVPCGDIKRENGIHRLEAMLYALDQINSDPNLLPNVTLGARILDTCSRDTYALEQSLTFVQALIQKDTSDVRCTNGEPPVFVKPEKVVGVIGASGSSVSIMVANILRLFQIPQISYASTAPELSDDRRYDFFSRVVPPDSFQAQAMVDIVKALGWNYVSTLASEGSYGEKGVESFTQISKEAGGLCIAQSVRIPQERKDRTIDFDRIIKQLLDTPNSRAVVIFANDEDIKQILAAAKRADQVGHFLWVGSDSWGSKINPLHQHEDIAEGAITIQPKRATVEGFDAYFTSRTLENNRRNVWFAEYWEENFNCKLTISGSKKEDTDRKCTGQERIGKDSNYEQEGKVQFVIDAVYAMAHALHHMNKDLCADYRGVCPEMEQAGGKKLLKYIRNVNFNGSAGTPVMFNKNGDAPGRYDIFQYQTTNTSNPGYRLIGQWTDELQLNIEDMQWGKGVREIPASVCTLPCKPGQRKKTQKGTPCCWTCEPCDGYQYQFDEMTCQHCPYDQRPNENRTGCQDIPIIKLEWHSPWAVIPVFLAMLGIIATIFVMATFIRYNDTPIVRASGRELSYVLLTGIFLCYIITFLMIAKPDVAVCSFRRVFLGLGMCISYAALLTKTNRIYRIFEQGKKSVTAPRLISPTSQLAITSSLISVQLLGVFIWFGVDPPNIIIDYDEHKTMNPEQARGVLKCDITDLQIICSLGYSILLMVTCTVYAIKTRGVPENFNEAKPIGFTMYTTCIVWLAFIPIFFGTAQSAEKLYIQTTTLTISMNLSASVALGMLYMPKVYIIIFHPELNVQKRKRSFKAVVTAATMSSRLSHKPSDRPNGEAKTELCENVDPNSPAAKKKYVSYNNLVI
# hERG (KCNH2), sequence (Q12809 whole entry): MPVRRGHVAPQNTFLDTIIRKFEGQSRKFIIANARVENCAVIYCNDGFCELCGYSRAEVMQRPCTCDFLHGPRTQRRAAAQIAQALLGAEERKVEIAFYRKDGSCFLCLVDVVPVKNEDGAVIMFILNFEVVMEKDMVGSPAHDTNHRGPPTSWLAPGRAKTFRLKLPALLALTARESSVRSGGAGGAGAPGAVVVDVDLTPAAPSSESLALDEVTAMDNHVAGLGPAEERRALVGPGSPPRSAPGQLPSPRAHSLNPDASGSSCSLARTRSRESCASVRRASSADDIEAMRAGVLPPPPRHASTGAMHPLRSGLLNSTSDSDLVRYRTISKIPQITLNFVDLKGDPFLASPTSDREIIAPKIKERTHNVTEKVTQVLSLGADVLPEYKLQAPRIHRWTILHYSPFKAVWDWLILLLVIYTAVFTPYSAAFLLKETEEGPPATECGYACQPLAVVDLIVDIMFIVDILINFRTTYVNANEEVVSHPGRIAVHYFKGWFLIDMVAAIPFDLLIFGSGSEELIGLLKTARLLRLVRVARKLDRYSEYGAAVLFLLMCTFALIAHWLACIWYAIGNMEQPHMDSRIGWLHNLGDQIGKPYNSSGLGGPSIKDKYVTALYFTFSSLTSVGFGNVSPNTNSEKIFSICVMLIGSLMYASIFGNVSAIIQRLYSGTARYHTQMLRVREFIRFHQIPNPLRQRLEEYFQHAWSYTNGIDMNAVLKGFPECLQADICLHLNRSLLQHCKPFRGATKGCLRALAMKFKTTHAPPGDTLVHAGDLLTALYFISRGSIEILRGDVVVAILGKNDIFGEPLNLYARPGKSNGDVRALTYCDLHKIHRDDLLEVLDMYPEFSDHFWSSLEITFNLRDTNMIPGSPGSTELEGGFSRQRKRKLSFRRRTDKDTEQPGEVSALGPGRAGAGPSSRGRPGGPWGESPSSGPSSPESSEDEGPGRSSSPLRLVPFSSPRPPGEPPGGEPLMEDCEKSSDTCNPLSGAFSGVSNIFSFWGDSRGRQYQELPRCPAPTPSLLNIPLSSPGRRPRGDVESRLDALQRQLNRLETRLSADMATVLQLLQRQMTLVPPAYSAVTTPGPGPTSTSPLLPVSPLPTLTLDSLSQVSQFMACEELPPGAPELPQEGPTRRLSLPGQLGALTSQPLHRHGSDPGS
# Metabotropic glutamate receptor 5, sequence (P41594 whole entry): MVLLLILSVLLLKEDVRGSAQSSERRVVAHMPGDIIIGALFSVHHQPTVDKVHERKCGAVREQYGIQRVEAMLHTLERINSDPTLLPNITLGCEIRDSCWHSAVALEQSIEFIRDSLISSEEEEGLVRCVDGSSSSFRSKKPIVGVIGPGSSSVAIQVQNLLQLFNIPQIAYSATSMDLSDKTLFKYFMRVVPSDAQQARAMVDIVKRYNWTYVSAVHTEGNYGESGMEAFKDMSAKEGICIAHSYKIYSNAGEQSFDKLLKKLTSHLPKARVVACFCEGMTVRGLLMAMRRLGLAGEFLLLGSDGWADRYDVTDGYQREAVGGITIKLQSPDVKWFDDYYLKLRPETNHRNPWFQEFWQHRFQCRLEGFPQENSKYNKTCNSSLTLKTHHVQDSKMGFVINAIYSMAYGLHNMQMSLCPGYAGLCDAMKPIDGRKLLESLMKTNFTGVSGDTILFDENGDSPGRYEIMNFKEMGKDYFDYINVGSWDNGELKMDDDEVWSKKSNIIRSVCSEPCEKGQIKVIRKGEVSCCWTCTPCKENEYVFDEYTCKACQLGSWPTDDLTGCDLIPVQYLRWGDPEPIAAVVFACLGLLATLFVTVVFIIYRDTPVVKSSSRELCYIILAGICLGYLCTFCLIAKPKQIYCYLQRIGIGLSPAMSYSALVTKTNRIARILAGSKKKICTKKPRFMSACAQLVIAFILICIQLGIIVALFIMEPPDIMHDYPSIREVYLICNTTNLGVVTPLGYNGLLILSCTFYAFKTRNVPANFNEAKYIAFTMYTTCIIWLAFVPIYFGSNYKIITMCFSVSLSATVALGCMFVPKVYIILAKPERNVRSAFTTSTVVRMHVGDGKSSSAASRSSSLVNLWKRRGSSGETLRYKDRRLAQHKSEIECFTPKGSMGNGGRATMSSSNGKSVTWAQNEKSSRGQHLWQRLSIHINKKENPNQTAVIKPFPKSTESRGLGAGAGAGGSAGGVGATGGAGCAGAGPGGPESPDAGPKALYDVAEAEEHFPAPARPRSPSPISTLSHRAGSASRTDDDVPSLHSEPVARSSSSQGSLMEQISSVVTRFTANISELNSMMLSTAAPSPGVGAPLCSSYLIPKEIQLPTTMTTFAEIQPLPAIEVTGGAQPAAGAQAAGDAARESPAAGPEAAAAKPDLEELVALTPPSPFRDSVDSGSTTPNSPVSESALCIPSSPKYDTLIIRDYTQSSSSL
smiles,measurement,setting,value
N[C@]1(C(=O)O)[C@@H]2[C@@H](C(=O)O)[C@@H]2[C@H](O)[C@H]1OCc1ccc(Cl)c(Cl)c1,concentration at 0.5 h,[1],4810 nM
same,Activity,[2],Dose-dependent effect
same,IC50,[3],0.0461 µM
same,Imax,[3],> 94%
same,"metabolised at 0.5 h, 4 µM",[4],< 20%
same,half-life,[5],4.48 h
same,"metabolised at 0.5 h, 4 µM",[6],< 20%
same,concentration at 0.5 h,[7],1290 nM
same,half-life,[8],4.61 h
same,inhibition at 100 µM,[9],13%
same,EC50,[10],> 50 µM
same,Cmax,[11],33900 nM
same,fraction unbound,[12],0.56
same,TIME,[13],0.0394 h
same,inhibition,[14],Active
same,IC50,[15],0.046 µM
same,Imax,[15],> 94%
same,IC50,[16],10.5 µM
same,TIME,[17],0.0272 h
same,F,[18],6%
same,Tmax,[19],1.67 h
same,fraction unbound at 1 µM,[20],> 0.4
same,"metabolised at 0.5 h, 4 µM",[21],< 20%
same,concentration at 0.5 h,[22],248 nM
same,concentration at 0.5 h,[23],72 nM
same,Cmax,[24],262 nM
same,EC50,[25],> 25 µM
same,half-life,[26],5.49 h
same,AUC(0-t) at 24 h,[27],116 µM·h
same,TIME,[28],2.18 h
same,EC50,[29],> 25 µM
same,fraction unbound at 1 µM,[30],> 0.4
same,ED60,[31],0.72 mg/kg
same,MED,[31],1 mg/kg
same,TIME,[32],0.0167 h
same,Activity,[33],Active
same,permeability,[34],2%
same,EC50,[35],> 25 µM
same,Kp at 0.5 h,[36],0.015
same,Cmax,[37],48100 nM
same,inhibition,[38],< 1%
same,IC50,[39],> 12.5 µM
same,AUC,[40],32.165 µM·h
same,EC50,[41],> 12.5 µM
same,"metabolised at 0.5 h, 4 µM",[42],< 20%
same,Activity,[43],Non-Toxic
